Measurements: US6545032B1, “Synthesis of [3,5,7]-H-imidazo[1,5-a] imidazol-2(3H)-one compounds” (Torrey Pines Institute for Molecular Studies, priority 1999, dated 2003)

Key:
mu opiate receptor = molecular target: T1, mu opiate receptor (Rattus norvegicus, UniProt P33535); assay: Inhibition of [3H]DAMGO binding to the mu opiate receptor in rat brain homogenates; design: Mean: unit not given beside the values; settings: 0.08 mg of compound per milliliter, 7 nM 3H-labeled DAMGO, rat brain membranes; for % Bound: [3H]DAMGO bound; for Mean: mean bound radioactivity of [3H]DAMGO; for Minus NSB*: mean minus non-specific binding; for % Inhibition: percent inhibition of DAMGO binding
T1 construct: from tissue; host or cells: rat brain membranes/homogenate
T1 sequence (P33535 whole entry): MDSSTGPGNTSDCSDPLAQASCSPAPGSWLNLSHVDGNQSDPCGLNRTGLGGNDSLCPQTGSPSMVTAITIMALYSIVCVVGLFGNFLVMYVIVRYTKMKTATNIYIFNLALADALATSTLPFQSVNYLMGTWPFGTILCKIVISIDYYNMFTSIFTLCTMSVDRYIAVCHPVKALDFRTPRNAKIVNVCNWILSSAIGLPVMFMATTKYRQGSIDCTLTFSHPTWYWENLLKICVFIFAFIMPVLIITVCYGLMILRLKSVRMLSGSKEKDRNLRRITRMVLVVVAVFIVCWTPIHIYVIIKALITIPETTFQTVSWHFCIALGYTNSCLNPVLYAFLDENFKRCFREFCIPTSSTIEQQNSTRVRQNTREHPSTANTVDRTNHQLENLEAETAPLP
Method: The previously prepared [3,5,7]-1H-imidazo[1,5-a]-imidazol-2(3H)-one library of individual compounds was screened for the ability to inhibit the binding of [^3H] [D-Ala^2,MePhe^4,Gly^5-ol]enkephalin (DAMGO) that is known to bind specifically to the mu opiate receptor present in rat brain homogenates following literature procedures. [Dooley et al., Science, 266:2019(1994); U.S. Pat. No. 5,763,193.]
Preparation of rat brain membranes and the receptor binding assay were carried out as described in Dooley et al., Life Sci., 52:1509(1993). Each tube in the screening assay contained 0.08 mg of compound mixture per milliliter, 0.5 mL of membrane suspension (0.1 mg of protein), 7 nM ^3H-labeled DAMGO [specific activity 36 Ci/mmol, obtained from the National Institute on Drug Abuse (NIDA) repository through Chiron Mimotopes PeptideSystems (San Diego, Calif.) and […] of peptide mixture in 50 mM Tris-HCl buffer (pH 7.4). The final volume was 0.65 mL. The results of these screenings are shown in the table, below, wherein the “R” groups are as discussed for Example 1. The results are reported as percent inhibition of DAMGO binding.

kappa opiate receptor = molecular target: T2, kappa opiate receptor (Cavia porcellus, UniProt P41144); assay: Inhibition of tritiated U69,593 binding to the kappa opiate receptor in guinea pig brain homogenates; design: Mean: unit not given beside the values; settings: 3 nm tritiated U69,593, guinea pig brain membranes; for % Bound: [3H]U69,593 bound; for % Inhibition: inhibition of [3H]U69,593 binding; for Mean: mean bound radioactivity of [3H]U69,593, 2.5 hours 25° C.; for Minus NSB: mean minus non-specific binding
T2 construct: guinea pig cortices and cerebella were homogenized in 40 mL of Buffer A; from tissue; host or cells: guinea pig cortices and cerebella, crude membrane suspension
T2 sequence (P41144 whole entry): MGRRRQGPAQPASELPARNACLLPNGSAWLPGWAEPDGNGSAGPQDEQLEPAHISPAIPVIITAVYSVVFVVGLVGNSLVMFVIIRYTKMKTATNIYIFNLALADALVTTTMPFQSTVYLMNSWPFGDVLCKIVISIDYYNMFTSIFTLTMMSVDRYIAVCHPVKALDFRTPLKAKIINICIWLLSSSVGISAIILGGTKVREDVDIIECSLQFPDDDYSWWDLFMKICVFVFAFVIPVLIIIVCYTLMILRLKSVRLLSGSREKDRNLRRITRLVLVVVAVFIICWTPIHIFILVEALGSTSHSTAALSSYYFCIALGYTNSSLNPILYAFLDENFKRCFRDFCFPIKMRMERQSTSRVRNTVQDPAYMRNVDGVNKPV
Method: The above-prepared library of individual compounds was screened for the ability to inhibit the binding of tritiated Compound U69,593 that is known to bind specifically to the kappa opiate receptor present in guinea pig brain homogenates following literature procedures. [Dooley et al., J. Biol. Chem., 273(30) 18848-18856 (1998)]
Briefly, guinea pig cortices and cerebella were homogenized in 40 mL of Buffer A [50 mM Tris-HCl, pH 7.4] at 4° C. Homogenates were centrifuged [Beckman® J2-HC, 35, 300×g] for 10 minutes. The pellets were resuspended in fresh buffer and incubated at 37° C. for 40 minutes. Following incubation, the suspensions were centrifuged as before, the resulting pellets resuspended in 100 volumes of Tris buffer, and the suspensions combined. Membrane suspensions were prepared and used on the same day. Protein content of the crude homogenates was determined by the method of Bradford, Anal. Biochem., 72:248-252 (1976).
Each assay tube contained 0.5 mL of membrane suspension, 3 nm of tritiated Compound U69,593 [(5a,7a,8b)-(−)-N-methyl-N-(7-(1-pyrrolidinyl)-1-oxaspiro(4,5)dec-8-yl)-benzeneacetamide; Lahti et al., European J. Pharmacol., 109:281-284(199-85)] in a total volume of 0.65 mL. Assay tubes were incubated for 2.5 hours a 25° C. The assay was then filtered through GF-B filters on a Tomec™ harvester (Orange, Conn.). The filters were subsequently washed with 6 mL of 50 mM Tris-HC1, pH 7.4 at 4° C. Bound radioactivity was counted on a Wallace™ Beta-plate Liquid Scintillation Counter (Piscataway, N.J.). Unlabeled U50, 488 [(trans-(dl)-3,4-dichloro-N-methyl-N-[2-(1-pyrrolidinyl)cyclohexyl]-benzeneacetamide) methane sulfonate hydrate; Lahti et al., Life Sci., 31:2257-xx(1982) and Von Voightlander et al., J. Pharmacol. Exp. Ther., 224:7 (1983)] was used as a competitive inhibitor to generate a standard curve and determine nonspecific binding. The results of these assays are shown in the table, below, wherein the “R” groups are as discussed for Example 1.

Row | SMILES | % Bound (mu opiate receptor) [%] | Mean (mu opiate receptor) | Minus NSB* (mu opiate receptor) | % Inhibition (mu opiate receptor) [%] | % Bound (kappa opiate receptor) [%] | % Inhibition (kappa opiate receptor) [%] | Mean (kappa opiate receptor) | Minus NSB (kappa opiate receptor)
1 | Cc1nc(CC(C)C)c2n1C(C(C)C)C(=O)N2 (centres unmarked) [Pool 37] | 66 | 932.9 | 624.90 | 34 | 62.973 | 37.027 | 1559.4 | 652.40
2 | Cc1nc(C(C)C)c2n1C(C(C)C)C(=O)N2 (centres unmarked) [Pool 19] | 75 | 1027.75 | 719.75 | 25 | 84.580 | 15.420 | 1783.25 | 876.25
3 | CC(C)c1nc(C2CCCCC2)n2c1NC(=O)C2C(C)C (centres unmarked) [Pool 137] | 66 | 933.35 | 625.35 | 34 | 129.619 | −29.619 | 2249.85 | 1342.85
4 | CCC(C)C1C(=O)Nc2c(C(C)C)nc(C)n21 (centres unmarked) [Pool 21] | 55 | 833.5 | 525.50 | 45 | 56.921 | 43.079 | 1496.7 | 589.70
5 | CC(C)c1nc(C2CCCC2)n2c1NC(=O)C2C(C)C (centres unmarked) [Pool 145] | 71 | 986.9 | 678.90 | 29 | 61.501 | 38.499 | 1544.15 | 637.15
6 | COc1ccc(Cc2nc(C(C)C)c3n2C(C(C)C)C(=O)N3)cc1 (racemic) [Pool 78] | 49 | 775.2 | 467.20 | 51 | 87.360 | 12.640 | 1812.05 | 905.05
7 | CSCCc1nc(C)n2c1NC(=O)C2C(C)C (racemic) [Pool 59] | 59 | 874.75 | 566.75 | 41 | 78.953 | 21.047 | 1724.95 | 817.95
8 | COc1ccc(Cc2nc(C(C)C)c3n2C(C(C)C)C(=O)N3)cc1OC (racemic) [Pool 87] | 59 | 870.35 | 562.35 | 41 | 81.337 | 18.663 | 1749.65 | 842.65
9 | CCCCC(CC)c1nc(C(C)C)c2n1C(C(C)C)C(=O)N2 (mixture of isomers) [Pool 128] | 60 | 881.35 | 573.35 | 40 | 57.563 | 42.437 | 1503.35 | 596.35
10 | CCC(c1ccccc1)c1nc(C(C)C)c2n1C(C(C)C)C(=O)N2 (mixture of isomers) [Pool 68] | 66 | 935.45 | 627.45 | 34 | 106.786 | −6.786 | 2013.3 | 1106.30
11 | CC(C)c1nc(C(C)C)n2c1NC(=O)C2C(C)C (racemic) [Pool 123] | 55 | 832.5 | 524.50 | 45 | 57.124 | 42.876 | 1498.8 | 591.80
12 | CC(C)c1nc(CCCC2CCCCC2)n2c1NC(=O)C2C(C)C (centres unmarked) [Pool 140] | 32 | 615.55 | 307.55 | 68 | 49.903 | 50.097 | 1424 | 517.00
13 | Cc1ncc2n1C(C(C)C)C(=O)N2 (centres unmarked) [Pool 34] | 68 | 956.4 | 648.40 | 32 | 79.117 | 20.883 | 1726.65 | 819.65
14 | Cc1nc(C(C)C)c2n1C(C(C)C)C(=O)N2 (centres unmarked) [Pool 52] | 68 | 959.85 | 651.85 | 32 | 74.744 | 25.256 | 1681.35 | 774.35
15 | CC(C)c1nc(Cc2ccc(F)cc2)n2c1NC(=O)C2C(C)C (racemic) [Pool 75] | 47 | 758.2 | 450.20 | 53 | 71.134 | 28.866 | 1643.95 | 736.95
16 | CC(C)c1nc(CC(C)(C)C)n2c1NC(=O)C2C(C)C (centres unmarked) [Pool 136] | 72 | 991 | 683.00 | 28 | 80.589 | 19.411 | 1741.9 | 834.90
